Experimental data published in US11078170B2 (Assembly Biosciences, Inc., priority 2017, dated 2021).

The molecules below were run on HBV viral production from HepAD38 cells (assay: Activity of test compounds on viral production from HepAD38 cells (viral load by qPCR of HBV core sequence in supernatant)). Conditions: Hepatitis B virus, 120 h, 5 days incubation, HBV DNA in supernatant by qPCR, top concentration 10 μM, read-out: Viral Load EC50 Activity range.
Format: cell-based
Method in brief: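 HepAD38 cells, 50,000/well in tetracycline-free 2% FBS medium, treated 5 days at 37° C. with compound from 10 μM top concentration. HBV DNA in supernatant quantified by TaqMan qPCR of core sequence against DNA standards, relative to DMSO wells; CellTiter-Glo viability read in parallel. EC50/CC50 from four-parameter logistic fit.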
Work on `[2H]C1C([2H])(c2ccc(Br)s2)NS(=O)(=O)N(C)C1([2H])C(=O)Nc1ccc(F)c(Cl)c1` (stereo not drawn) [HBV-CSU-371, Cis-5-(5-Bromothiophen-2-yl)-N-(3-chloro-4-fluorophenyl)-2-methyl-1,2,6-thiadiazinane-3,4,5-d3-3-carboxamide 1,1-dioxide] yielded an EC50 of under 1 µM. `[2H]C1C([2H])(c2ccc(Br)s2)NS(=O)(=O)N(C([2H])([2H])[2H])C1([2H])C(=O)Nc1ccc(F)c(Cl)c1` (stereo not drawn) [HBV-CSU-372, Cis-5-(5-bromothiophen-2-yl)-N-(3-chloro-4-fluorophenyl)-2-(methyl-d3)-1,2,6-thiadiazinane-3,4,5-d3-3-carboxamide 1,1-dioxide] showed an EC50 of under 1 µM. `[2H]C([2H])([2H])N1[C@H](C(=O)Nc2ccc(F)c(Cl)c2)C[C@H](c2ccc(-c3cn(C)cn3)s2)NS1(=O)=O` [HBV-CSU-373-ISO-I, Cis-N-(3-Chloro-4-fluorophenyl)-2-(methyl-d3)-5-(5-(1-methyl-1H-imidazol-4-yl)thiophen-2-yl)-1,2,6-thiadiazinane-3-carboxamide 1,1-dioxide] was tested, and the EC50 was under 1 µM. In the case of `[2H]C([2H])([2H])N1C(C(=O)Nc2ccc(F)c(Cl)c2)CC(c2ccc(-c3cn(C)cn3)s2)NS1(=O)=O` (stereo not drawn) [HBV-CSU-373], the EC50 is reported as under 1 µM. `[2H]C([2H])([2H])N1C(C(=O)Nc2ccc(F)c(Cl)c2)CC(c2ccc(-c3cn(C([2H])([2H])[2H])cn3)s2)NS1(=O)=O` (stereo not drawn) [HBV-CSU-374] was tested, and the EC50 was under 1 µM. In the case of `[2H]C1C([2H])(c2ccc(-c3cn(C)cn3)s2)NS(=O)(=O)N(C)C1([2H])C(=O)Nc1ccc(F)c(Cl)c1` (stereo not drawn) [HBV-CSU-375, Cis-N-(3-Chloro-4-fluorophenyl)-2-methyl-5-(5-(1-methyl-1H-imidazol-4-yl)thiophen-2-yl)-1,2,6-thiadiazinane-3,4,5-d3-3-carboxamide 1,1-dioxide], the EC50 is reported as under 1 µM. In the case of `[2H]C1C([2H])(c2ccc(-c3cn(C([2H])([2H])[2H])cn3)s2)NS(=O)(=O)N(C)C1([2H])C(=O)Nc1ccc(F)c(Cl)c1` (stereo not drawn) [HBV-CSU-376, Cis-N-(3-Chloro-4-fluorophenyl)-2-methyl-5-(5-(1-(methyl-d3)-1H-imidazol-4-yl)thiophen-2-yl)-1,2,6-thiadiazinane-3,4,5-d3-3-carboxamide 1,1-dioxide], the EC50 is reported as under 1 µM. In the case of `[2H]C1C([2H])(c2ccc(-c3cn(C([2H])([2H])[2H])cn3)s2)NS(=O)(=O)N(C([2H])([2H])[2H])C1([2H])C(=O)Nc1ccc(F)c(Cl)c1` (stereo not drawn) [HBV-CSU-378, Cis-N-(3-chloro-4-fluorophenyl)-2-(methyl-d3)-5-(5-(1-(methyl-d3)-1H-imidazol-4-yl)thiophen-2-yl)-1,2,6-thiadiazinane-3,4,5-d3-3-carboxamide 1,1-dioxide], the EC50 is reported as under 1 µM. For `CN1[C@H](C(=O)Nc2ccc(F)c(Br)c2)C[C@H](c2ncc(Br)s2)NS1(=O)=O` [HBV-CSU-383, (3S,5R)—N-(3-bromo-4-fluorophenyl)-5-(5-bromothiazol-2-yl)-2-methyl-1,2,6-thiadiazinane-3-carboxamide 1,1-dioxide], the EC50 was under 1 µM.
